We go through eight compounds from ChEMBL document CHEMBL5465560, “Selectivity Literature for EUbOPEN Chemogenomic Library” (2024).

Experiment [1] addresses Calcium/calmodulin-dependent protein kinase type 1D (Homo sapiens) (UniProt Q8IU85). As to the kind of experiment: Selectivity interaction (Ambit KINOMEscan and KiNATiv profiling in Jurkat cells) EUB0000090b CAMK1D. It counts as cell-based. To be noted: at 1 µM.
The target in experiment [2] is T1, Myosin-IIIb (Homo sapiens) (UniProt Q8WXR4).
T1 sequence (whole entry): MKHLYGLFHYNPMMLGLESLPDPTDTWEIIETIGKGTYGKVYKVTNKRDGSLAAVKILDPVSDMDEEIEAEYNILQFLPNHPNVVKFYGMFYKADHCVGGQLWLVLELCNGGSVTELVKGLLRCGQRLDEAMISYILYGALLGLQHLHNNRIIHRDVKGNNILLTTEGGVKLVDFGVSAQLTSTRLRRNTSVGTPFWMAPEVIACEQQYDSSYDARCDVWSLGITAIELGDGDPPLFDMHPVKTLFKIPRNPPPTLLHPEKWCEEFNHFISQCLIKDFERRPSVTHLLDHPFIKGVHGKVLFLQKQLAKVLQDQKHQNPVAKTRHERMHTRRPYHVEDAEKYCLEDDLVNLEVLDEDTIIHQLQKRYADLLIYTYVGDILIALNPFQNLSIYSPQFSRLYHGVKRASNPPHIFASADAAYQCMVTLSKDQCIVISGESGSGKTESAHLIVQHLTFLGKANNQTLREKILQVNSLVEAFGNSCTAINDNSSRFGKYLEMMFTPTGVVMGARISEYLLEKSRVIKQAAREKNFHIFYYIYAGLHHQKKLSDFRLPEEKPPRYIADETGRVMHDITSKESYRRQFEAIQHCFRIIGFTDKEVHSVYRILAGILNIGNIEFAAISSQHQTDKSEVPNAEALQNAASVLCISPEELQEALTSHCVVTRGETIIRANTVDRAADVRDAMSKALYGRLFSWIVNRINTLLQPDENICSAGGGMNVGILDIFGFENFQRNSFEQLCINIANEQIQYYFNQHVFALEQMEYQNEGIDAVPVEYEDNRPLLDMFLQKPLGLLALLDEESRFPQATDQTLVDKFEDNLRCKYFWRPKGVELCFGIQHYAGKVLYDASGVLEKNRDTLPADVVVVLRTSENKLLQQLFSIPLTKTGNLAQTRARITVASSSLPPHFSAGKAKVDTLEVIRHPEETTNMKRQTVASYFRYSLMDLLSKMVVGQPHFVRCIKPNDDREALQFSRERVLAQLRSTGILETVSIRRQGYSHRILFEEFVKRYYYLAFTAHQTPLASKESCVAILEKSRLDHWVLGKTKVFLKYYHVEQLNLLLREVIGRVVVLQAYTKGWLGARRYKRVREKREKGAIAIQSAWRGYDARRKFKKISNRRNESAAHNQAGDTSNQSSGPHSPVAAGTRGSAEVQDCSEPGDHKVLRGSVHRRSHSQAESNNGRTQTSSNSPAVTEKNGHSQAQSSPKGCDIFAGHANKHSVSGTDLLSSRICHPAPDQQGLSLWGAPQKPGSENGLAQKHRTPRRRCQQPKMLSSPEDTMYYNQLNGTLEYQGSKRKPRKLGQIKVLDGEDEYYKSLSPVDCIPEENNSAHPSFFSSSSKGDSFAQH
The following applies: at 10 µM.

Experiment [3] deals with T2, Histone-arginine methyltransferase CARM1 (Homo sapiens) (UniProt Q86X55).
T2 sequence (whole entry): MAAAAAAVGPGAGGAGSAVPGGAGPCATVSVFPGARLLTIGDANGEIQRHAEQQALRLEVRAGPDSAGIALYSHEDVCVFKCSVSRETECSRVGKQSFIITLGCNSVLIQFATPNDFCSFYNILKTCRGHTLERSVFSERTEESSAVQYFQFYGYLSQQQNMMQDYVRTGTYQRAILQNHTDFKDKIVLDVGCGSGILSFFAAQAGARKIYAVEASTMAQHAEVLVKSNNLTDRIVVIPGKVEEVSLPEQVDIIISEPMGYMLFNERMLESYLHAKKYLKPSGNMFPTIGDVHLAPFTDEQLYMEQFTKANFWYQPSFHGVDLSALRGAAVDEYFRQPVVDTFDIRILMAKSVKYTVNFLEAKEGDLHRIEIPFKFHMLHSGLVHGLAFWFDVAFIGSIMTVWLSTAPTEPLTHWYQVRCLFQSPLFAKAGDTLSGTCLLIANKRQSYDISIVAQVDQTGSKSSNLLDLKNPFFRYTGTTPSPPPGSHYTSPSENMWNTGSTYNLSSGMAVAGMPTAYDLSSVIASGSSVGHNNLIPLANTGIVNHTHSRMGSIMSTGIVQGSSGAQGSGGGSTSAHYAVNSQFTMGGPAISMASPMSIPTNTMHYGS
The following applies: KMS-11, at 3 µM.

Experiment [4] concerns the target Serine/threonine-protein kinase WNK1 (Homo sapiens) (UniProt Q9H4A3). As to the kind of experiment: Selectivity interaction (ActivX KiNativ screen (ex vivo kinase selectivity in human PBMCs)) EUB0001619a WNK1. To be noted: PBMC, at 1 µM. Format: cell-based.
Experiment [5] concerns the target Tyrosine-protein kinase Fer (Homo sapiens) (UniProt P16591). As to the kind of experiment: Selectivity interaction (KinomeScan (DiscoverX)) EUB0001049a FER. The following applies: at 1 µM.
Experiment [6] has as its target Casein kinase I isoform gamma-2 (Homo sapiens) (UniProt P78368). Nature of the experiment: Selectivity interaction (KinomeScan (DiscoverX)) EUB0000092b CSNK1G2. To be noted: at 10 µM.
Experiment [7] concerns the target T3, Serine/threonine-protein kinase VRK1 (Homo sapiens) (UniProt Q99986).
T3 sequence (whole entry): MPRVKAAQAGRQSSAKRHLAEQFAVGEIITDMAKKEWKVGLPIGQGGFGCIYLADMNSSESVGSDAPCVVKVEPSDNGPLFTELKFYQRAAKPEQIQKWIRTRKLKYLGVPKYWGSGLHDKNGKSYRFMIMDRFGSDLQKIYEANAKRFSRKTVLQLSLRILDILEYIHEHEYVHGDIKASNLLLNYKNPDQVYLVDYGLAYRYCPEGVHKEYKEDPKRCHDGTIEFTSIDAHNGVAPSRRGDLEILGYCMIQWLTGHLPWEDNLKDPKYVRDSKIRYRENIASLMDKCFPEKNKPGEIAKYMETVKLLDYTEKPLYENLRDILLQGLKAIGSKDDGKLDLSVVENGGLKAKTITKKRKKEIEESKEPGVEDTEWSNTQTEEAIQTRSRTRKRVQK
As to the kind of experiment: Selectivity interaction (Kinase panel (DSF assay)) EUB0001559a VRK1.

The target in experiment [8] is Serine/threonine-protein kinase N1 (Homo sapiens, UniProt Q16512). As to the kind of experiment: Selectivity interaction (KinomeScan (DiscoverX)) EUB0000595a PKN1. To be noted: at 10 µM.
Experiment [9] addresses Fibroblast growth factor receptor 2 (Homo sapiens) (UniProt P21802). Nature of the experiment: Selectivity interaction (KinomeScan (DiscoverX)) EUB0000595a FGFR2. The following applies: at 10 µM.
In experiment [10] the target is CDK4/Cyclin D3 (Homo sapiens) (UniProt P11802+P30281). Nature of the experiment: (§1) Selectivity interaction (KinomeScan (DiscoverX)) EUB0000595a CDK4. It counts as protein-complex assay. The following applies: at 10 µM.
The target of experiment [11] is Cyclin-dependent kinase 4/cyclin D1 (Homo sapiens) (UniProt P11802+P24385). Described as §1. Format: protein-complex assay. To be noted: at 10 µM.

Chain of Tyrosine-protein kinase Fer (Homo sapiens) (P16591 whole entry, looked up, canonical isoform): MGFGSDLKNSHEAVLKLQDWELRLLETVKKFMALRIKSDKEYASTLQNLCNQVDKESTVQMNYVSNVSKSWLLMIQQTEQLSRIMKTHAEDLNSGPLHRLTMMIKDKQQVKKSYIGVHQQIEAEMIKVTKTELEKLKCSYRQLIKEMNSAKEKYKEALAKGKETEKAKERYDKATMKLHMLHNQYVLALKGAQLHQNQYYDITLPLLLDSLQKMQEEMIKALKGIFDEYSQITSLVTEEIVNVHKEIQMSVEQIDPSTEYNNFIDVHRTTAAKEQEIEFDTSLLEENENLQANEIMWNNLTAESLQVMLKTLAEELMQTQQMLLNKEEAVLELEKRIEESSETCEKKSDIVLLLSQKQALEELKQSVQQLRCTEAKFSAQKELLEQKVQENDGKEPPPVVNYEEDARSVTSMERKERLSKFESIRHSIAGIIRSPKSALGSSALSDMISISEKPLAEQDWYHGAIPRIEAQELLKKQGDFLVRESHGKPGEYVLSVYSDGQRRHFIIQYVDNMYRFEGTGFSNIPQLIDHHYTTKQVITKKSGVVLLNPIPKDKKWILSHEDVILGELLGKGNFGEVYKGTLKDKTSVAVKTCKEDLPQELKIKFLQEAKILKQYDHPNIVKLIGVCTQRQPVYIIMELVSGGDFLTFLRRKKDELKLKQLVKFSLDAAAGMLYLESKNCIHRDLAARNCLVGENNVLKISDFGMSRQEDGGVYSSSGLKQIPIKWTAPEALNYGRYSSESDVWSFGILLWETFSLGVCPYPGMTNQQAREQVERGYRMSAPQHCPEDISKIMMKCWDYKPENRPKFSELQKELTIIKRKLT
Chain of Serine/threonine-protein kinase N1 (Q16512 2-942 limits assumed): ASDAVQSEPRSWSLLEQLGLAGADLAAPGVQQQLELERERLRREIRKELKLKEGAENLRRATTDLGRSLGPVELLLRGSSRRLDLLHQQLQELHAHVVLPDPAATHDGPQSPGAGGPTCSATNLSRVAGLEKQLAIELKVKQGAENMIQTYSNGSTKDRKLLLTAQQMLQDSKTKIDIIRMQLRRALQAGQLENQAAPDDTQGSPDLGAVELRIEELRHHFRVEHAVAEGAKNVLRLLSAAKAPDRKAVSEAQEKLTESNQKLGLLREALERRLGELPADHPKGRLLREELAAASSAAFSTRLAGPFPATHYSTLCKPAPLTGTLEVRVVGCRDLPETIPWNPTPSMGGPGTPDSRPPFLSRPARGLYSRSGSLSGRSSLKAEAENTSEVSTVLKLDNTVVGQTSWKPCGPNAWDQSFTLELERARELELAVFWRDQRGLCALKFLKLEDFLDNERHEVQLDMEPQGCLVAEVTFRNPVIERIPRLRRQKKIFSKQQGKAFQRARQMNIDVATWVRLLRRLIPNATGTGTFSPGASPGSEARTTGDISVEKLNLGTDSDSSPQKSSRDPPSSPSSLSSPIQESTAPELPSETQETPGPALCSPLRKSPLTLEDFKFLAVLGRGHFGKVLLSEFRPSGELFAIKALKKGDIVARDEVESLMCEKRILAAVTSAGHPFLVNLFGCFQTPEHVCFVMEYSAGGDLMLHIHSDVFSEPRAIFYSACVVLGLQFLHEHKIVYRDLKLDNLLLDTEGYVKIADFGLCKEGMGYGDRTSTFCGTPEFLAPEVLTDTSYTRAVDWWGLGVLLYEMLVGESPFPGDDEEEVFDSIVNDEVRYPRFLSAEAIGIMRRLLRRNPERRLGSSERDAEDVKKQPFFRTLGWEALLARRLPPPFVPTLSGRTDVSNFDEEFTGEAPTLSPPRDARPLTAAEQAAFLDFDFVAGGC
Chain of Fibroblast growth factor receptor 2 (Homo sapiens) (P21802 22-821 limits assumed): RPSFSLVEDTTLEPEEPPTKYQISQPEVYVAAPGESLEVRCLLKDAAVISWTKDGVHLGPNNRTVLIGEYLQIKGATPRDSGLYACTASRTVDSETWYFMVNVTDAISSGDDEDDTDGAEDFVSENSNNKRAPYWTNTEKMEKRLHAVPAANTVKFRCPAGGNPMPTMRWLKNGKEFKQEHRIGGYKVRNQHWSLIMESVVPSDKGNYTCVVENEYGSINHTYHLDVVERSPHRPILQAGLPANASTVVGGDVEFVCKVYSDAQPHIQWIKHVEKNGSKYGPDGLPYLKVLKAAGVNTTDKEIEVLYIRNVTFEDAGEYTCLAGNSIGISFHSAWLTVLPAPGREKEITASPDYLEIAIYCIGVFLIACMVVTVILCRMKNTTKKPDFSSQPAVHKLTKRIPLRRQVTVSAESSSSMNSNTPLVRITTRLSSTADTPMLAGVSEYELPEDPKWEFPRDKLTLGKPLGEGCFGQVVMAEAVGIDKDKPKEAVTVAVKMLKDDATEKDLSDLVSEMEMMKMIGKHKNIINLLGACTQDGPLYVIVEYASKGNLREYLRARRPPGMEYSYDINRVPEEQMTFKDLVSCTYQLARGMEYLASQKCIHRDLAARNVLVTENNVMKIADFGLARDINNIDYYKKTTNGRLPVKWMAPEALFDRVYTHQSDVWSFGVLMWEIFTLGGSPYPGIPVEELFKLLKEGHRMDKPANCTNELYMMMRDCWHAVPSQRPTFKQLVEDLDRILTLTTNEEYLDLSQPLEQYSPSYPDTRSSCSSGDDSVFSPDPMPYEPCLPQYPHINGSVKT
Chain of Casein kinase I isoform gamma-2 (Homo sapiens) (P78368 whole entry, looked up, canonical isoform): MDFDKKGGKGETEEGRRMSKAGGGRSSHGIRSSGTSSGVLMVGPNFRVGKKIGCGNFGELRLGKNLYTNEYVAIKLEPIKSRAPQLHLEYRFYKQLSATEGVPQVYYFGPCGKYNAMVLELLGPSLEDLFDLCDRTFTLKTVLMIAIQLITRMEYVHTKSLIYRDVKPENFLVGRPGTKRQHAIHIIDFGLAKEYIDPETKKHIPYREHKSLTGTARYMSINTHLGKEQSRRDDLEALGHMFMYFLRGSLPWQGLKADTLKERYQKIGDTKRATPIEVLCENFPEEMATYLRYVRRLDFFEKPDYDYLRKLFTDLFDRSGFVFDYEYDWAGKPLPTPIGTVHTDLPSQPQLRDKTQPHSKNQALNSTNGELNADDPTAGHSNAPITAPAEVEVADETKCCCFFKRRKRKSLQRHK
Chain of Calcium/calmodulin-dependent protein kinase type 1D (Homo sapiens) (Q8IU85 whole entry, looked up): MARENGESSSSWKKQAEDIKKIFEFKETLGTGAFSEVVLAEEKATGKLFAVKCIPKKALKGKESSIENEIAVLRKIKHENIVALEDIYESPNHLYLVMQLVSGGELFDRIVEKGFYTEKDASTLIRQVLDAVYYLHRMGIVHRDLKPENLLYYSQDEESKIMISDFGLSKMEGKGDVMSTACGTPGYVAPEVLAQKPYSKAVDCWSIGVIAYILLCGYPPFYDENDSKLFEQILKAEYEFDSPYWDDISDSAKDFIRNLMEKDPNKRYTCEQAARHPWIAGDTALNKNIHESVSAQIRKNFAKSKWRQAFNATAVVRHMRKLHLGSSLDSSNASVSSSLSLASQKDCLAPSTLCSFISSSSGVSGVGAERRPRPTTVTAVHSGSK

Take `CN(C)C/C=C/C(=O)Nc1ccc(C(=O)N2CCCC(Nc3ncc(Cl)c(-c4c[nH]c5ccccc45)n3)C2)cc1` (stereo unspecified): in [1], the % of control amounted to 78%.

As to `Cc1cc([C@@H](C)Nc2ccccc2C(=O)O)c2nc(N3CCOCC3)cc(=O)n2c1` [AZD-6482], the % of control in experiment [2] came to 93%.

Turning to `CNCCN1CCC(c2cc(CN(C)C(=O)c3cccc(Oc4ccccc4)c3)ccn2)CC1`, the % of growth rate in [3] is -17.2%.

For `N#Cc1cccc(-c2c[nH]c3ncnc(N4CCOCC4)c23)c1`, the % of inhibition in experiment [4] is -6%.

`COc1cc(Nc2nc(C)cc(-c3cnn4nc(OC)ccc34)n2)cc(C(F)(F)F)c1`: in [5], the % of control was determined as 93%.

`CCC(=O)N1CCN(c2ccc(-n3c(=O)ccc4cnc5ccc(-c6cnc7ccccc7c6)cc5c43)cc2C(F)(F)F)CC1` returned a % of control in experiment [6] of 100%.

Regarding `CN(C(=O)c1cnn2cccnc12)c1cc2c(cc1N1CCOCC1)C(=O)N(C[C@@H](F)C(C)(C)O)C2`, the dTM in experiment [7] stood at 0.2 K.

As to `COCC(=O)NC/C=C/c1ccc2ncnc(Nc3ccc(Oc4ccc(C)nc4)c(C)c3)c2c1` [CP-724714], the % of control in experiment [8], in experiment [9], in [10] and in [11] was 100% in each case.
